{
  "source": "patent US20240050434A1",
  "about": "“HORMAD1 THERAPEUTICS” (Royal Cancer Hospital, priority 2020, published 2024)",
  "key": {"[1]": {"test_system": "HORMAD1-positive and HORMAD1-negative triple negative breast cancer patient-derived organoids", "assay": "Patient-derived TNBC organoids, viability by cell titre glo", "format": "cell-based, human", "conditions": "14 days", "description": "RPE1 cells were reverse transfected with BUB1 or control siRNA particles for 3 days. Cell lysates were collected, and analysed by western blotting using anti-BUB1 and anti-β-ACTIN antibodies. B. Graph indicating reduced cellular survival in HORMAD1 expressing RPE1 cells depleted of BUB1 using siRNA. RPE1 cells expressing a doxycycline-inducible HORMAD1 expression construct were exposed to doxycycline or vehicle, and were reverse transfected with BUB1 or control siRNA particles. 5 days post transfection, cellular viability was estimated using cell titer glo reagent and surviving fractions were calculated relative to DMSO treated cells. […] Statistical significance estimated using a one-way ANOVA with Sidak's correction. C. […] 7-10 days post doxycycline induction, cells were fixed, stained with SRB, and cellular viability was estimated using SRB absorbance readings. […] Cells were fixed, stained with SRB, and cellular viability was estimated using SRB absorbance readings. […] Cells were imaged every 4 hours, and confluence was continually measured using incucyte software. […] Cellular viability was estimated using cell titer glo reagent and surviving fractions were calculated relative to DMSO treated cells. […]\nA further experiment was conducted to test the efficacy of BUB1 inhibitors to selectively kill HORMAD1-positive human tumours. […] Surviving fractions were calculated (normalised to vehicle treated cells). […]"}, "[2]": {"test_system": "organoids from spontaneous tumours of WB1P mouse with or without human HORMAD1", "assay": "Organoids from genetically engineered mouse model tumours, viability by cell titre glo", "format": "cell-based", "conditions": "increasing doses, 14 days post drugging", "description": "In a further experiment, HORMAD1 was expressed within a genetically engineered mouse model of triple-negative breast cancer (original model published in Annunziato et al., 2019). Human HORMAD1 was expressed in the WB1P mouse (Annunziato et al., 2019) using a transgene and derived organoids from spontaneous tumours.\nGenetically engineered mouse models were generated by conditionally deleting BRCA1 and P53 in breast epithelia (Liu et al., 2007). Human HORMAD1 fused to luciferase was conditionally expressed under a breast-specific promoter. Spontaneous tumours from these mice were isolated and grown as organoids, treated with increasing doses of BUB1 inhibitor, BAY-1816032. 14 days post drugging, cell viability was estimated using cell titre glo reagent. Surviving fractions were calculated (normalised to vehicle treated cells). Data from 3 replicas, analysed using 2-way ANOVA."}, "AURORA B kinase": {"target": "AURORA B kinase (Homo sapiens, UniProt Q96GD4)", "sequence (Q96GD4 whole entry)": "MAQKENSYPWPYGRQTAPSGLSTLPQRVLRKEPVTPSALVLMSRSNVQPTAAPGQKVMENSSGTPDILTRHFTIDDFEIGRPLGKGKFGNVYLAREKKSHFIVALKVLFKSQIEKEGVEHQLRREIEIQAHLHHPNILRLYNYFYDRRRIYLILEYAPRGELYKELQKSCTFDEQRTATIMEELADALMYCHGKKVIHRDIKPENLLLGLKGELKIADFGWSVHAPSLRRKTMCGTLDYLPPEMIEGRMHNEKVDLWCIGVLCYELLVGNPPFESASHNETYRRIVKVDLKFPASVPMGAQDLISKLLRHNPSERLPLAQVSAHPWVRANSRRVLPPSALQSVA", "conditions": "competitive ATP inhibition; Mortlock et al., 2007; cited from earlier work"}, "[3]": {"test_system": "HORMAD1 positive organoid KCL625", "assay": "HORMAD1 positive organoid KCL625 viability by cell titer glo", "format": "cell-based", "conditions": "indicated doses, 10 days", "experimental": "Organoids were treated with the indicated doses of drug for 10 days and cell viability assessed by cell titer glo. Data is presented as mean and standard deviation of triplicate wells;"}},
  "note": "Entries after “also recorded” stand apart in the source; their conditions may differ.",
  "data": [
    {"molecule": "COc1cnccc1Nc1nc(-c2nn(Cc3c(F)cc(OCCO)cc3F)c3ccccc23)ncc1OC", "note": "[BAY-1816032]", "values": [
      {"measurement": "growth inhibition of HORMAD1-expressing versus HORMAD1-negative patient-derived organoids (BUB1 inhibitor)", "setting": "[1]; 3 HORMAD1-positive and 5 HORMAD1-negative models", "value": "more effectively inhibited; also recorded: increased BUB1 inhibitor sensitivity"},
      {"measurement": "growth inhibition of HORMAD1-expressing versus HORMAD1-negative mouse tumour organoids", "setting": "[2]", "value": "more effectively inhibited"}
    ]},
    {"molecule": "CCN(CCO)CCCOc1ccc2c(Nc3cc(CC(=O)Nc4cccc(F)c4)[nH]n3)ncnc2c1", "note": "[AZD1152-HQPA]", "values": [
      {"measurement": "inhibition of AURORA B kinase activity", "setting": "AURORA B kinase", "value": "potently inhibits"},
      {"measurement": "growth inhibition of HORMAD1 expressing versus HORMAD1-negative patient-derived organoids (AURORA B inhibitor)", "setting": "[1]; BTBC673PO versus WHIM21XO, BXO88XO, BXO78XO", "value": "growth inhibition was more effective"},
      {"measurement": "sensitivity (surviving fraction versus DMSO) of organoid KCL625", "setting": "[3]", "value": "highly sensitive; also recorded: high sensitivity"}
    ]}
  ]
}
